Test results taken from ChEMBL document CHEMBL4229526, “Quinoxaline derivatives as potential antitrypanosomal and antileishmanial agents” (Bioorg Med Chem, 2018).

What was measured:
Trypanosoma brucei = assay: Antitrypanosomal activity against Trypanosoma brucei Lister 427 bloodstream forms after 48 hrs by resazurin dye based fluorescence assay; format: functional, organism-based; conditions: Lister 427, 48 h
Trypanosoma cruzi [1] = assay: Antitrypanosomal activity against Trypanosoma cruzi Tulahuen amastigote forms infected in rat H9c2 cells assessed as reduction in amastigote number per cell after 72 hrs by DRAQ5 DNA dye based confocal microscopic analysis; format: functional, organism-based; conditions: H9c2, 72 h
THP-1 = assay: Cytotoxicity against human THP1 cells infected with Leishmania donovani MHOM/SD/62/1S-CL2D LdBOB amastigotes harboring eGFP assessed as reduction in cell number after 96 hrs by DAPI staining based microscopic analysis; conditions: THP-1, 96 h
[2] = Cytotoxicity against human HepG2 cells after 48 hrs by CellTiter-Glo cell viability assay; format: cell-based
H9c2 = assay: Cytotoxicity against rat H9c2 cells infected with Trypanosoma cruzi Tulahuen amastigote forms assessed as reduction in cell number after 72 hrs by DRAQ5 DNA dye based confocal microscopic analysis; conditions: H9c2, 72 h
Leishmania donovani [3] = assay: Antileishmanial activity against Leishmania donovani MHOM/SD/62/1S-CL2D LdBOB amastigotes harboring eGFP infected in human THP1 cells assessed as reduction in infected cells after 96 hrs by DAPI staining based microscopic analysis; format: functional, organism-based; conditions: THP-1, 96 h
Leishmania donovani [4] = assay: Antileishmanial activity against Leishmania donovani MHOM/SD/62/1S-CL2D LdBOB axenic amastigotes harboring eGFP after 72 hrs by resazurin dye based fluorescence assay; format: functional, organism-based
Leishmania donovani [5] = assay: Antileishmanial activity against Leishmania donovani MHOM/SD/62/1S-CL2D LdBOB amastigotes harboring eGFP infected in human THP1 cells assessed as reduction in number of amastigotes per cell after 96 hrs by DAPI staining based microscopic analysis; format: functional, organism-based; conditions: THP-1, 96 h
Trypanosoma cruzi [6] = assay: Antitrypanosomal activity against Trypanosoma cruzi Tulahuen amastigote forms infected in rat H9c2 cells assessed as reduction in infected cells after 72 hrs by DRAQ5 DNA dye based confocal microscopic analysis; format: functional, organism-based; conditions: H9c2, 72 h
Trypanosoma cruzi [7] = assay: Antitrypanosomal activity against Trypanosoma cruzi Tulahuen trypomastigote forms infected in monkey LLC-MK2 cells after 24 hrs by CellTiter-Glo luminescent cell viability assay; format: functional, organism-based; conditions: LLC-MK2, 24 h

Row | SMILES | IC50 (Trypanosoma brucei) [µM] | IC50 (Trypanosoma cruzi [1]) [µM] | IC50 (THP-1) [µM] | CC50 at 48 h [2] [µM] | IC50 (H9c2) [µM] | IC50 (Leishmania donovani [3]) [µM] | IC50 (Leishmania donovani [4]) [µM] | IC50 (Leishmania donovani [5]) [µM] | IC50 (Trypanosoma cruzi [6]) [µM] | IC50 (Trypanosoma cruzi [7]) [µM]
1 | CCCCNc1nc2cc(Cl)ccc2nc1S(C)(=O)=O | 6.31 | 7.94 | 5.01 | 6.31 | 5.01 | 7.94 | 3.16 | 7.94 | 10 | 0.96
2 | CS(=O)(=O)c1nc2ccc(Cl)cc2nc1NC1CCCCC1 | 2.51 | 5.01 | 6.31 | 5.01 | 3.98 | 10 | 3.98 | 12.6 | 7.94 | 0.4
3 | COc1ccc2nc(NC3CCCCC3)c([S+](C)[O-])nc2c1 (stereo unspecified) | 19.9 | 10 | 10 | 12.6 | 5.01 | 7.94 | 7.94 | 6.31 | 12.6 | 7.74
4 | C[S+]([O-])c1nc2ccc(Cl)cc2nc1NC1CCCCC1 (stereo unspecified) | 6.31 | 3.98 | 31.6 | 15.8 | 3.16 | 31.6 | 10 | 31.6 | 5.01 | 0.74
5 | COc1ccc2nc(-c3ccc(Cl)cc3)c(-c3ccc(S(C)(=O)=O)cc3)nc2c1 | 19.9 | 7.94 | 7.94 | 5.01 | 5.01 | 10 | 2.51 | 12.6 | 10 | 1.14
6 | COc1ccc2nc(-c3ccc(-c4ccccc4)cc3)c(-c3ccc(S(C)(=O)=O)cc3)nc2c1 | 31.6 | 31.6 | 39.8 | > 100 | 25.1 | > 50 | > 50 | > 50 | 19.9 | 42.4
7 | COc1ccc2nc(-c3ccc(Cl)cc3)c(-c3ccc([S+](C)[O-])cc3)nc2c1 (stereo unspecified) | 3.98 | 10 | 12.6 | 7.94 | 6.31 | 12.6 | 3.16 | 12.6 | 12.6 | 1.04
8 | COc1ccc2nc(-c3ccc(S(C)(=O)=O)cc3)c(-c3ccc(Cl)cc3)nc2c1 | 10 | 19.9 | 12.6 | 25.1 | 10 | 19.9 | 7.94 | 19.9 | 25.1 | 4.21
9 | CS(=O)(=O)c1ccc(-c2nc3ccccc3nc2-c2ccc(Cl)cc2)cc1 | 10 | 10 | 10 | 10 | 5.01 | 10 | 3.16 | 10 | 12.6 | 0.7
10 | C[C@@H]1[C@H](O)[C@@H](C)/C=C/C=C/C=C/C=C/C=C/C=C/C=C/[C@H](O[C@@H]2O[C@H](C)[C@@H](O)[C@H](N)[C@@H]2O)C[C@@H]2O[C@](O)(C[C@@H](O)C[C@@H](O)[C@H](O)CC[C@@H](O)C[C@@H](O)CC(=O)O[C@H]1C)C[C@H](O)[C@H]2C(=O)O [AMPHOTERICIN B] |  |  | 10 |  |  | 0.63 | 1.58 | 0.63 |  | 
11 | O=C(Cn1ccnc1[N+](=O)[O-])NCc1ccccc1 [BENZNIDAZOLE] | 3.24 | 1.26 |  |  | > 50 |  |  |  | 5.3 | 23
12 | NCCC[C@](N)(C(=O)O)C(F)F [EFLORNITHINE, (S)-] | 32.4 |  |  |  |  |  |  |  |  | 
13 | CCCCCCCCCCCCCCCCOP(=O)([O-])OCC[N+](C)(C)C [MILTEFOSINE] |  |  | 15.8 |  |  | 5.01 | 7.94 | 3.98 |  | 
14 | CC1CS(=O)(=O)CCN1/N=C/c1ccc([N+](=O)[O-])o1 (stereo unspecified) [NIFURTIMOX] | 7.58 | 0.4 |  |  | > 50 |  |  |  | 5.9 | 2.97
15 | N=C(N)c1ccc(OCCCCCOc2ccc(C(=N)N)cc2)cc1 [PENTAMIDINE] | 0.01 |  |  |  |  |  |  |  |  | 
16 | Cc1ccc(C(=O)Nc2ccc(S(=O)(=O)O)c3cc(S(=O)(=O)O)cc(S(=O)(=O)O)c23)cc1NC(=O)c1cccc(NC(=O)Nc2cccc(C(=O)Nc3cc(C(=O)Nc4ccc(S(=O)(=O)O)c5cc(S(=O)(=O)O)cc(S(=O)(=O)O)c45)ccc3C)c2)c1 [SURAMIN] | 0.18 |  |  |  |  |  |  |  |  | 
